These results are taken from patent US6426229B1, “Chelating agent and detergent comprising the same” (Mitsubishi Rayon Co., Ltd., priority 1995, dated 2002).

Data set [1] in a line: Biodegradability, 301C Modified MITI Test (1) (OECD guideline).
The conditions of data set [2]: reported value; cited from earlier work.
The nature of data set [3]: Storage of aqueous solution or slurry for 60 days: HPLC analysis of components and appearance. The data set is classed as physicochemical. The settings on record: keeping temperature 50° C. As to the method:
(§1) This aqueous solution was kept at 50° C. for 60 days, and, then, the components were analyzed by HPLC and, simultaneously, the appearance of the solution was observed.
as §1
This aqueous solution was kept at 50° C. for 60 days. Then, the components were analyzed by HPLC and, simultaneously, the appearance of the solution was observed.

Consider `CN(CC(=O)O)CC(=O)O` [MIDA, N-methyliminodiacetic acid], for which the “biodegradability in 301C Modified MITI Test” value (shortened to “biodegradability”) in data set [1] is “completely decomposed to inorganic materials in a short time”. Besides, the “chelate stability constant for calcium” value in data set [2] was 3.7.
On to `O=C(O)CN[C@@H](CC(=O)O)C(=O)O` [S-ASMA, (S)-aspartic acid-N-monoacetic acid], for which, in data set [1], the “biodegradability” value is on record as “completely converted to inorganic materials in a short time”.
Regarding `O=C(O)CN(CC(=O)O)CC(=O)O` [NTA, nitrilotriacetic acid, reference compound], the “chelate stability constant for calcium” value in data set [2] is recorded as 6.4.
`O=C(O)CN(CCS(=O)(=O)O)CC(=O)O` [TUDA, taurine-N,N-diacetic acid]: the “chelate stability constant for calcium” value in data set [2] is on record as 4.2.
On to `O=C(O)CCN[C@@H](CC(=O)O)C(=O)O` [S-ASMP, (S)-aspartic acid-N-monopropionic acid], for which the “biodegradability” value in data set [1] is “completely converted to inorganic materials in a short time”.
Take `O=C([O-])CC(NCCCNC(CC(=O)[O-])C(=O)[O-])C(=O)[O-].[Cu+2].[Na+].[Na+]` (centres unmarked) [compound 50, copper disodium 1,3-propanediamine-N,N′-disuccinate]: in data set [3], the “Appearance after kept for 60 days” value is reported as “Dark blue transparent aqueous solution” and the “Content of the compound of the formula [I] in aqueous solution after kept for 60 days” value (“Content of the compound of the formula” below) amounted to 32.2 wt. %.
The like results for `C[C@@H](C(=O)[O-])N(CC(=O)[O-])CC(=O)[O-].[Na+].[Na+].[Na+]` [Example 88, trisodium salt of (S)-α-alanine-N,N-diacetic acid] were, in that order, “Light yellow transparent aqueous solution” and 36.5 wt. %.
Regarding `O=C([O-])CN(CCS(=O)(=O)[O-])CC(=O)[O-].[Na+].[Na+].[Na+]` [compound 40, trisodium salt of taurine-N,N-diacetic acid], in data set [3], the “Appearance after kept for 60 days” value is reported as “Brown slurry” and the “Content of the compound of the formula” value was determined as 29.5 wt. %.
For `O=C([O-])CN(CC(=O)[O-])c1ccccc1C(=O)[O-].[Na+].[Na+].[Na+]` [Example 102, trisodium salt of anthranilic acid-N,N-diacetic acid], in data set [3], the “Appearance after kept for 60 days” value was “Light yellow transparent aqueous solution” and the “Content of the compound of the formula” value was determined as 37.8 wt. %.
For `O=C([O-])CC(NCCCNC(CC(=O)[O-])C(=O)[O-])C(=O)[O-].[Na+].[Na+].[Na+].[Na+]` (centres unmarked) [Example 114, tetrasodium 1,3-propanediamine-N,N′-disuccinate], in data set [3], the “Appearance after kept for 60 days” value is “Light yellow transparent aqueous solution” and the “Content of the compound of the formula” value came to 36.4 wt. %.
For `O=C(O)C[C@@H](C(=O)O)N(CC(=O)O)CC(=O)O` [S-ASDA, (S)-aspartic acid-N,N-diacetic acid], in data set [2], the “chelate stability constant for calcium” value is 5.8.
With `O=C([O-])CN(CC(=O)[O-])c1ccccc1C(=O)[O-].[Na+].[Na+].[Na+]` [compound 39, trisodium salt of anthranilic acid-N,N-diacetic acid], in data set [3], the “Appearance after kept for 60 days” value is listed as “Brown aqueous solution” and the “Content of the compound of the formula” value stood at 31.8 wt. %.
For `O=C([O-])CC(NCCCNC(CC(=O)[O-])C(=O)[O-])C(=O)[O-].[Na+].[Na+].[Na+].[Na+]` (centres unmarked) [compound 45, tetrasodium 1,3-propanediamine-N,N′-disuccinate], in data set [3], the “Appearance after kept for 60 days” value is on record as “Light yellow transparent aqueous solution” and the “Content of the compound of the formula” value stood at 33.3 wt. %.
Take `O=C([O-])CCN[C@@H](CC(=O)[O-])C(=O)[O-].[Na+].[Na+].[Na+]` [Example 87, trisodium salt of (S)-aspartic acid-N-monopropionic acid]: in data set [3], the “Appearance after kept for 60 days” value is “Light yellow transparent aqueous solution” and the “Content of the compound of the formula” value came out at 37.8 wt. %.
Take `O=C([O-])CN[C@@H](CC(=O)[O-])C(=O)[O-].[Na+].[Na+].[Na+]` [Example 85, trisodium salt of (S)-aspartic acid-N-monoacetic acid]: in data set [3], the “Appearance after kept for 60 days” value is listed as “Light yellow transparent aqueous solution” and the “Content of the compound of the formula” value was 35.4 wt. %.
On the same counts, the results for `O=C([O-])CC(NCCNC(CC(=O)[O-])C(=O)[O-])C(=O)[O-].[Cu+2].[Na+].[Na+]` (centres unmarked) [Example 124, copper disodium ethylenediamine-N,N′-disuccinate] are “Dark blue transparent aqueous solution” and 36.3 wt. %.
`O=C([O-])CN[C@@H](CC(=O)[O-])C(=O)[O-].[Na+].[Na+].[Na+]` [compound 29, trisodium salt of (S)-aspartic acid-N-monoacetic acid]: in data set [3], the “Appearance after kept for 60 days” value is “Brown aqueous solution” and the “Content of the compound of the formula” value came out at 31.1 wt. %.
